In assay [1] the target is T1, PKK in kaolin activated human platelet poor plasma (Homo sapiens, UniProt P03952).
T1 construct: Platelet poor plasma (PPP) obtained from human wholeblood; from tissue
The assay can be described thus: Inhibition of PKK in kaolin activated human PPP.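 Further: readout is the rate of fluorogenic substrate cleavage in rfu per min.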 Format: biochemical. Particulars: 25-750 μg/mL kaolin, global fit, text b200 calls the values IC90. On the procedure: Platelet poor plasma (PPP) obtained from human wholeblood, anticoagulated with Na-Citrate, is incubated with various concentrations of the test compound together with either 25, 75, 250, or 750 μg/mL kaolin in assay buffer for 20 min at 37° C. such that for each kaolin dose used a concentration response is obtained for the test compound.

In a further assay the target is T2, Human PKK (Homo sapiens, UniProt P03952).
T2 construct: purchased Enzyme Research Laboratories
T2 sequence (P03952 20-390 limits assumed): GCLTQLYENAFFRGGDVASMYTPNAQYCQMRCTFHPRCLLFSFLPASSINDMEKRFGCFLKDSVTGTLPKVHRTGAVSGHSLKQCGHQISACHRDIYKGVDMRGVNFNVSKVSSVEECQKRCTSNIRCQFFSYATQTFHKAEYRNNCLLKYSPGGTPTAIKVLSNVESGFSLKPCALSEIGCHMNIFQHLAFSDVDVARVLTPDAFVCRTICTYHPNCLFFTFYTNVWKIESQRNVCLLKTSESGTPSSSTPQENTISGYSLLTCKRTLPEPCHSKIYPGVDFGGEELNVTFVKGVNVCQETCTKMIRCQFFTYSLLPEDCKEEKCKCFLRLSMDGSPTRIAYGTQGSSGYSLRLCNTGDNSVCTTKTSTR
T2 sequence (P03952 391-638 limits assumed): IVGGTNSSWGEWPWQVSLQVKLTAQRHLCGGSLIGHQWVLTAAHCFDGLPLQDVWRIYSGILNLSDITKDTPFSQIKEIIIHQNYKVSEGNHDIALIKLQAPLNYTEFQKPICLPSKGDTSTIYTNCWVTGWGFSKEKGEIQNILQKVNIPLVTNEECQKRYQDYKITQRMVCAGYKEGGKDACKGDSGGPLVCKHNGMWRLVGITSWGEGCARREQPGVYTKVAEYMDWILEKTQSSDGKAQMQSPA
The assay can be described thus: Inhibition of PKK using an endpoint assay (human PKK). The class given is biochemical. Conditions: fluorogenic substrate H-Pro-Phe-Arg-AMC, 1 h room temperature, method names human or rat PKK, table does not say which. On the procedure: The ability of compounds of formula (I) to inhibit plasma kallikrein (PKK), Factor XIIa (FXIIa), Factor XIa (FXIa), Factor Xa (FXa), Factor IIa (alpha-thrombin; FIIa), plasmin, trypsin, tissue kallikrein 1 (TK1), Factor VIIa (FVIIa), or FVIIa complexed with Tissue Factor, phospholipids and CaCl2 (FVIIa/TF/PL/CaCl2) is determined using the following biochemical assays in assay buffer (100 mM Tris, 150 mM NaCL, adjusted to a pH of 7.8 with HCl, and containing 0.1% (w/v) BSA and 0.05% (v/v) Tween20) in the presence of 1% (v/v) DMSO:
Subsequently, PPACK II (Calbiochem) is added as a stop solution to achieve a final concentration of 1 μM and fluorescence is measured using an Envision Reader (PerkinElmer) with the wavelength excitation setting of 355 nm and the wavelength emission setting of 460 nm.

Molecules are shown by their SMILES.

T1 sequence (P03952 391-638 limits assumed): as above
T1 sequence (P03952 20-390 limits assumed): as the sequence (P03952 20-390 limits assumed) above

As a reminder, the IC50 is the concentration that gives 50% inhibition. With `Cn1cnc2c1CC[C@H]2NC(=O)c1cn(Cc2ccc(N3CC4C(C3)C4(F)F)nc2Cl)nn1` (stereo partly drawn) [Example 1, 1-[(2-Chloro-6-{6,6-difluoro-3-azabicyclo[3.1.0]hexan-3-yl}pyridin-3-yl)methyl]-N-[(4R)-1-methyl-1H,4H,5H,6H-cyclopenta[d]imidazol-4-yl]-1H-1,2,3-triazole-4-carboxamide], the 50% inhibitory concentration (IC50) in assay [1] stood at 290 nM; against Human PKK, 1.3 nM.
Take `Cn1cnc2c1CC[C@H]2NC(=O)c1cc(Cc2ccc(N3CC4CC4C3)nc2C(F)F)no1` (stereo partly drawn) [Example 144, 3-[(6-{3-Azabicyclo[3.1.0]hexan-3-yl}-2-(difluoromethyl)pyridin-3-yl)methyl]-N-[(4R)-1-methyl-1H,4H,5H,6H-cyclopenta[d]imidazol-4-yl]-1,2-oxazole-5-carboxamide]: the IC50 in assay [1] worked out at 248 nM; at Human PKK, 0.8 nM.
The corresponding values for `Cc1nc(N2CC3CC3C2)ccc1Cc1cc(C(=O)N[C@@H]2CCc3c2ncn3C)n(C)n1` (stereo partly drawn) [Example 168, 3-[(6-{3-Azabicyclo[3.1.0]hexan-3-yl}-2-methylpyridin-3-yl)methyl]-1-methyl-N-[(4R)-1-methyl-1H,4H,5H,6H-cyclopenta[d]imidazol-4-yl]-1H-pyrazole-5-carboxamide] are 1860 nM and 1.5 nM.
Regarding `Cn1cnc2c1CC[C@H]2NC(=O)c1cc(Cc2ccc(N3CC4CC4C3)nc2CO)n[nH]1` (stereo partly drawn) [Example 220, 3-[(6-{3-Azabicyclo[3.1.0]hexan-3-yl}-2-(hydroxymethyl)pyridin-3-yl)methyl]-N-[(4R)-1-methyl-1H,4H,5H,6H-cyclopenta[d]imidazol-4-yl]-1H-pyrazole-5-carboxamide], the half-maximal inhibitory concentration (IC50) amounted to 525 nM in assay [1] and 1.9 nM on Human PKK.
In the case of `Cn1cnc2c1CC[C@H]2NC(=O)c1cn(Cc2ccc(N3CC4C(C3)C4(F)F)cn2)cn1` (stereo partly drawn) [Example 53, 1-[(5-{6,6-Difluoro-3-azabicyclo[3.1.0]hexan-3-yl}pyridin-2-yl)methyl]-N-[(4R)-1-methyl-1H,4H,5H,6H-cyclopenta[d]imidazol-4-yl]-1H-imidazole-4-carboxamide], the IC50 worked out at 203 nM in assay [1] and 2 nM at Human PKK.
`CC(CO)c1nc(N2CC3CC3C2)ccc1Cn1cc(C(=O)N[C@@H]2CCc3c2ncn3C)cn1` (stereo partly drawn) [Example 59, 1-[(6-{3-Azabicyclo[3.1.0]hexan-3-yl}-2-(1-hydroxypropan-2-yl)pyridin-3-yl)methyl]-N-[(4R)-1-methyl-1H,4H,5H,6H-cyclopenta[d]imidazol-4-yl]-1H-pyrazole-4-carboxamide] displayed an IC50 at Human PKK of 0.4 nM.
`Cc1nc(N2C[C@@]3(C)C[C@@]3(C)C2)ncc1Cn1cc(C(=O)N[C@@H]2CCc3c2ncn3C)cn1` [Example 225, 1-({2-[(1R,5S)-1,5-Dimethyl-3-azabicyclo[3.1.0]hexan-3-yl]-4-methylpyrimidin-5-yl}methyl)-N-[(4R)-1-methyl-1H,4H,5H,6H-cyclopenta[d]imidazol-4-yl]-1H-pyrazole-4-carboxamide] returned an IC50 against Human PKK of 232 nM.
On to `Cn1cnc2c1CC[C@H]2NC(=O)c1cn(Cc2ccc(N3CC4C(C3)C4(F)F)nc2)c(Cl)n1` (stereo partly drawn) [Example 176, 2-Chloro-1-[(6-{6,6-difluoro-3-azabicyclo-[3.1.0]hexan-3-yl}pyridin-3-yl)methyl]-N-[(4R)-1-methyl-1H,4H,5H,6H-cyclopenta[d]imidazol-4-yl]-1H-imidazole-4-carboxamide], for which half-maximal inhibition against Human PKK (IC50) required 4.2 nM.
Still for that read-out and setting: as for `Cc1nc(N2CC3(CCC3)C2)ncc1Cn1cc(C(=O)N[C@@H]2CCc3c2ncn3C)cn1` [Example 226, 1-[(2-{2-Azaspiro[3.3]heptan-2-yl}-4-methylpyrimidin-5-yl)methyl]-N-[(4R)-1-methyl-1H,4H,5H,6H-cyclopenta[d]imidazol-4-yl]-1H-pyrazole-4-carboxamide], the figure is 35.7 nM.

For the origin of these results see patent US12479827B2, “Heteroaromatic carboxamide derivatives as plasma kallikrein inhibitors” (Boehringer Ingelheim International GmbH, priority 2020, dated 2025).
